Test results as given in patent publication EP2329817A1, “Retinoic acid receptor antagonists, miR-10a inhibitors and inhibitors of HOXB1 or HOXB3 repressors for treating pancreatic cancer” (Ernst-Moritz-Arndt-Universität Greifswald, priority 2009, dated 2011).

Key:
Assay type in all cases: cell-based, human
HOXB1 = assay: RT-PCR / RT-qPCR of HOXB1 expression; settings: quantitative PCR
Method: (§1) Northern Blot analysis was performed essentially according to Kloosterman et al. ^16 using a miR-10 LNA probe ([…]) (Exiqon, Denmark). We had previously described protocols for RT-PCR^17 and RT-qPCR^18 . Primers for the RT-PCR were: HOXB1: sc-38686 and HOXB3: sc-38690-PR and RARα: sc-29465-PR all from Santa Cruz Biotechnology. For quantitative RT-PCR we used 100 ng of total RNA and the Roche Master SYBR Green kit. Single-band amplification was verified by melting curve dissociation protocols. A standard curve for β-actin using 1, 5, 10, 100, and 500 ng of total RNA was used for normalization. RT-qPCR primers for HOXB1 were: forward 5'-[…]-3' and reverse 5'-[…]-3' and for HOXB3: forward 5'-[…]-3' and reverse 5'-[…]-3'.
(§2) PaTu-S and PaTu-T cells were treated (24h) as indicated with specific siRNAs against HOXB1 (B1) and HOXB3 (B3) (Co: DMSO control) in the presence or absence of Ro-41-5253. Migration of these cells was analysed after transplantation into zebrafish embryos (see Table 1) and downregulation of HOXB1 and HOXB3 expression in these cells was confirmed by PCR analysis (A).
(§3) A similar regulation is seen following incubation with miR-10a Morpholinos or with miR-10a siRNAs (right side; Control: control Morpholino or control-siRNA) (B). Results are normalized to β-actin expression and similar results were obtained in three independent experiments. […]

HOXB3 = assay: RT-PCR / RT-qPCR of HOXB3 expression; settings: quantitative PCR
Method: as §1, §2, §3

miR-10a [1] = assay: cells
Method: Northern Blot analysis was performed essentially according to Kloosterman et al. ^16 using a miR-10 LNA probe ([…]) (Exiqon, Denmark). We had previously described protocols for RT-PCR^17 and RT-qPCR^18 . Primers for the RT-PCR were: HOXB1: sc-38686 and HOXB3: sc-38690-PR and RARα: sc-29465-PR all from Santa Cruz Biotechnology. For quantitative RT-PCR we used 100 ng of total RNA and the Roche Master SYBR Green kit. Single-band amplification was verified by melting curve dissociation protocols. A standard curve for β-actin using 1, 5, 10, 100, and 500 ng of total RNA was used for normalization. […]
PaTu-T cells were incubated as indicated, with DMSO (Co), 200 nM Ro-41-5253 (RARα inh), control-Morpholino, miR-10a Morpholino, miR-196 siRNA (Co), or RARα siRNA and PaTu-S cells were co-incubated with 1 µM retinoic acid (RA) and control siRNA, RARα siRNA or Ro-415253 and miR-10a expression was evaluated by Northern blot analysis (A). […] The effect of Ro-415253 on cell migration was analysed in an in vitro migration assay in PaTu-T cells. […]
PaTu-T cells were incubated for 24h with indicated concentrations of Ro-415253 and miR-10a expression was evaluated by northern blot analysis (upper panel). […] Patu-S cells were incubated tor 24h with indicated concentrations of ATRA and miR-10a expression was evaluated by northern blot analysis (upper panel). […]

miR-10a [2] = assay: Northern blot of miR-10a expression in PaTu-T cells (densitometry); settings: for miR-10a expression: result in words
Method: as §1
PaTu-T cells were incubated as indicated, with DMSO (Co), 200 nM Ro-41-5253 (RARα inh), control-Morpholino, miR-10a Morpholino, miR-196 siRNA (Co), or RARα siRNA and PaTu-S cells were co-incubated with 1 µM retinoic acid (RA) and control siRNA, RARα siRNA or Ro-415253 and miR-10a expression was evaluated by Northern blot analysis (A). […] RT-PCR control of GAPDH was used as a loading control (not shown). Dose response curves for RA and the RARα antagonist and the RT-PCR control for RARα siRNA treatment are shown in Supplemental Fig. 1. The effect of Ro-415253 on cell migration was analysed in an in vitro migration assay in PaTu-T cells. […] An actin re-blot confirmed equal loading.
PaTu-T cells were incubated for 24h with indicated concentrations of Ro-415253 and miR-10a expression was evaluated by northern blot analysis (upper panel). GAPDH loading control is shown in the lower panel. […] Patu-S cells were incubated tor 24h with indicated concentrations of ATRA and miR-10a expression was evaluated by northern blot analysis (upper panel). GAPDH loading control is shown in the lower panel. (C) Specific "knockdown" of RARα in PaTu-Tcells by RARα siRNA. RT-PCR from total RNA of RARα or control siRNA (Co) treated PaTu-T cells (24h) confirms specific knockdown of RARa. RT-PCR of GAPDH control is shown in the lower panel.

SMILES	HOXB1 expression (HOXB1; PaTu-S cells)	HOXB3 expression (HOXB3; PaTu-S cells)	fold induction at 1 µM (miR-10a [1]; Homo sapiens, 24 h, read-out: miR-10a expression upregulated)	HOXB1 expression (HOXB1; PaTu-T cells)	reduction of miR-10a expression (miR-10a [2]; densitometric analysis, Ro-41-5253 at 200 nM)	miR-10a expression (miR-10a [2])	miR-10a expression (miR-10a [2]; listed as Ro-415253)	HOXB3 expression (HOXB3; PaTu-T cells)	upregulation of miR-10a expression by retinoic acid (miR-10a [1]; PaTu-S cells co-incubated with 1 µM retinoic acid)
CC1=C(/C=C/C(C)=C/C=C/C(C)=C/C(=O)O)C(C)(C)CCC1 [RA, all trans retinoic acid]	decreased	decreased	7.2						
CCCCCCCOc1cc2c(cc1/C(C)=C/c1ccc(C(=O)O)cc1)C(C)(C)CCS2(=O)=O [Ro-41-5253, Benzoic acid, 4-(2-(7-(heptyloxy)-3,4-dihydro-4,4-dimethyl-2H-1-benzothiopyran-6-yl)-1-propenyl)-, S,S-dioxide, (E)]				increased	9.4 fold	significant decrease	Dose dependent repression	increased	completely blocked
